Measurements taken from US20260373103A1, “COMPOSITIONS AND METHODS FOR PREVENTING CARDIOMYOPATHY” (OHIO STATE INNOVATION FOUNDATION, priority 2022, published 2026).
“Also recorded” adds a separate entry of the source.

Experiments:
[1] = Tissue concentrations 24 h post-dose; assay type: in vivo, Male C57BL/6 Mice
Description: ST-539 was dissolved into 1% DMSO in Sesame oil and injected intraperitoneally (i.p.) at doses of 25 mg/kg. Serial blood samples were collected at 0.083, 0.25, 0.5, 1, 2, 4 and 8 hours post dosing. Mice were euthanized at 24 hours post dosing. A terminal blood sample was collected by cardiac puncture followed by harvesting the brain and heart. Transcardial perfusion was performed prior to brain collection. The blood samples were placed in microtubes pretreated with K2EDTA as an anticoagulant and kept on ice until centrifugation. The tissue samples were rinsed using cold distilled water to remove blood, blotted dry, weighed and stored on dry ice until LC/MS/MS analysis. Plasma was transferred into polypropylene tubes or 96-well plates, quick frozen on dry ice, and stored at −70±10 °C until LC/MS/MS analysis.

[2] = tested on: Jurkat T cells; assay: Doxorubicin-induced apoptosis / cell viability, Resazurin assay; assay type: cell-based; details: 48 hours, ST-539 and doxorubicin
[3] = tested on: hippocampus of the brain; assay: In vivo mitophagy in hippocampus of the brain; parameters: species or system mouse; details: 25 mg/kg/day i.p. for 5 days
Description: Fluorescent samples were examined with a Zeiss LSM 780 confocal microscope (Carl Zeiss MicroImaging). As previously described^2, fluorescence of mt-Keima was imaged in two channels via two sequential excitations (458 nm, green; 561 nm, red) and using a 570- to 695-nm emission range. Confocal experiments for parkin translocation were performed using a HeLa cell line stably expressing YFP-Parkin plated on 35 mm coverglass #1.5 chamber dishes (MatTek). These cells were treated for 2 h with DMSO as vehicle control or with A/O. YFP was imaged with a 514-nm excitation and 520- to 570-emission filters. Representative confocal images were processed using Imaris software by contrast linear stretch only. Calculation of mitophagy based on mt-Keima signal was performed using Zeiss ZEN software as previously described^2. The average of four images from each tissue sample was taken, and the values were normalized to the average value seen in the controls, assigned the value of one.
The mt-Keima mouse. […] The mice were lightly anesthetized with isoflurane and the ejection fraction, fractional shortening, and ventricular chamber dimensions were determined using 2-D-guided M mode images. Ejection fraction, fractional shortening, ventricular chamber dimensions, and left ventricular mass were calculated automatically using the VevoLAB program. […]

[4] = tested on: Human induced pluripotent stem cell-derived cardiomyocytes; assay: Doxorubicin-induced cell death in hiPSC-CMs; assay type: cell-based; details: 48 hours, doxorubicin+ST-539
[5] = tested on: mice; assay: Safety / tolerability in mice; assay type: in vivo; details: 25 mg/kg/day i.p. for 5 days
Description: The mt-Keima mouse. ST-539 was dissolved into 1% DMSO in Sesame oil and injected intraperitoneally (i.p.) at doses of 25 mg/kg/day with five total doses. Both male and female mice were used in this study. The control group received vehicle only. Echocardiographic measurements were taken using a Vevo3100 Visual Sonics (Visual Sonics) system. The mice were lightly anesthetized with isoflurane and the ejection fraction, fractional shortening, and ventricular chamber dimensions were determined using 2-D-guided M mode images. Ejection fraction, fractional shortening, ventricular chamber dimensions, and left ventricular mass were calculated automatically using the VevoLAB program. All experiments involving animals were approved by the Institutional Animal Care and Use Committee at The Ohio State University.

[6] = tested on: HeLa cells; assay: Mitophagy inducer screen by TOM20 turnover; assay type: cell-based; details: cellular TOM20 turnover assay
Description: The enzymatic activity of Parkin is to function as an E3 ubiquitin ligase. […] To investigate TOM20 ubiquitination during mitophagy, we treated HeLa cells stably expressing YFP-Parkin (Hela-Parkin) for up to 18 h with both the mitochondrial complex III inhibitor antimycin A and the ATP synthase inhibitor oligomycin (antimycin A/oligomycin/[A/O]; FIG. 1A). […] A/O treatment also results in a decline in the abundance of the OMM protein TOM40 and the inner mitochondrial protein TIM23 (FIG. 1A). […] In this context, increased expression of USP30 blocked the accumulation of ubiquitinated TOM20 and prevented the destruction of this outer mitochondrial protein, as well as TOM40 and TIM23, after A/O treatment (FIG. 1A). We then employed this cellular assay to monitor TOM20 turnover, and analyzed compounds known to be associated with the ubiquitination process for inhibitors of USP30. […] We defined the effects of this chemical using biochemical assays. […] Initially to assess mitophagy in cells, we monitored the degradation of the inner membrane protein, the translocase of the inner membrane 23 (TIM23), by immunoblotting (FIG. 5A). […] USP30's overexpression prevented a reduction in TIM23 and TOM40 levels.

[7] = tested on: mitochondrial function; assay: Mitochondrial function overall in cells; assay type: cell-based; details: regardless of USP30 expression
Description: HeLa cells and mouse embryonic fibroblasts (MEFs) were grown in Dulbecco's minimum essential medium (DMEM) with 10% fetal bovine serum (FBS) supplemented with penicillin-streptomycin. HeLa Parkin, PINK1 KO cells, WT and MFN2 KO cells were previously described. Cells stably expressing USP30 were generated using lentiviral vectors of pLVX-Puro-Myc-USP30. The USP30 plasmid was obtained from Addgene. The plasmid was transferred into a lentiviral vector and viral particles were prepared by transiently transfecting HEK293T using standard methods. For the drug treatment experiments, cells were incubated in medium containing a mixture of 5 μM oligomycin and 5 μM antimycin A (A/O; see figures for treatment times). In 18 h treatment, A/O were used in combination with 10 μM quinolyl-valyl-O-methylaspartyl-[−2,6-difluorophenoxy]-methyl ketone (QVD), a broad-spectrum caspase inhibitor. ST51000539 (ST-539) was purchased from Tim Tec, Inc. Other chemicals were from Sigma-Aldrich (St. Louis, MO, USA). For FACS analysis, cells stably expressing mt-Keima were incubated in medium containing a mixture of […] antimycin A for 1.5 h. Prior to A/O treatment, cultures were treated with DMSO or ST-539 at 3 μg/ml. Cells were trypsinized, washed once with PBS buffer and then resuspended into 500 μl of PBS prior to analysis using a BD Fortessa flow cytometer as previously described.

[8] = 24 Hours Post-dose, 25 mg/kg i.p., mean

In the case of `CC(C)(C)NS(=O)(=O)c1cccc2c(NC(=O)C(Cc3ccccc3)NC(=O)c3ccccc3)cccc12` (stereo not drawn) [ST-539], the Brain concentration [1, 8] is reported as 17.4 ng/g, the Heart concentration [1, 8] is reported as 37.0 ng/g and the “ST-539 detected in mouse brain homogenate” value ([1]; 24 h post-dose) is reported as “modest concentrations”. For the same molecule, the “doxorubicin-induced apoptosis in leukemia (percent cell viability)” value [2] was “potentiates doxorubicin-induced apoptosis in leukemia”, the “mitophagic flux in hippocampus” value [3] was “remains unchanged” and the “doxorubicin-induced cell death (percent survival of hiPSC-CMs)” value [4] was “reduces doxorubicin-induced cell death”. The “safety / tolerability in mice” value [5] was “appears to be safe in mice”, the “potency as mitophagy inducer in screen” value [6] was “most potent mitophagy inducer” and the “effect on mitochondrial function” value [7] was “minimal effect on mitochondrial function; also recorded: marginally alters mitochondrial function”.
